How the values were obtained:
iPLA2gamma = biological target: T1, iPLA2gamma (Homo sapiens, UniProt Q9NP80); conditions: previously demonstrated (refs 37-39); cited from earlier work
T1 sequence (Q9NP80 1-782): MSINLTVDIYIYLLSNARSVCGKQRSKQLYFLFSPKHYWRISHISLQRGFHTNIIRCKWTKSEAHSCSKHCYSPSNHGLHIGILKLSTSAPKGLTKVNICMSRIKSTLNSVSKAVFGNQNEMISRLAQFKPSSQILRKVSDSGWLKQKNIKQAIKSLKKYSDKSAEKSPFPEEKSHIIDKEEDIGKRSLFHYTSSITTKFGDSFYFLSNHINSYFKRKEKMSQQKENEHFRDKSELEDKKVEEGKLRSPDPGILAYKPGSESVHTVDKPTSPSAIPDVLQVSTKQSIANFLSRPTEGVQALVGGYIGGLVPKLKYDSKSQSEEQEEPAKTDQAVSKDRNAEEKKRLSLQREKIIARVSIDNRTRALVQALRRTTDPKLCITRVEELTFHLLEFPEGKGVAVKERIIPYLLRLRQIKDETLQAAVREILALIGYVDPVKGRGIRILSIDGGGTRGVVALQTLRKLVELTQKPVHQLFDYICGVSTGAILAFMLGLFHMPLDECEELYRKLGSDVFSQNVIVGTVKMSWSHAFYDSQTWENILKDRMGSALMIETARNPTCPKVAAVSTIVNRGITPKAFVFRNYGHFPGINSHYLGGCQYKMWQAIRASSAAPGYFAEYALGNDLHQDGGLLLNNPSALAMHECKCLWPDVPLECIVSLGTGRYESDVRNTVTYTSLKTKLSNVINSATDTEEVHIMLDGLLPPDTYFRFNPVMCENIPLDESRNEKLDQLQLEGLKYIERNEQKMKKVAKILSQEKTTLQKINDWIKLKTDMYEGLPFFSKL

[1] = biological target: iPLA2epsilon, iPLA2zeta, and iPLA2eta; assay: Triglyceride lipase activity inhibition, summary over the three isoforms; assay type: biochemical, human; conditions: range over iPLA2epsilon, zeta, eta; read-out: IC50, triglyceride lipase activity of each of the three isoforms
Procedure: (§1) Assay for Triolein Lipase Activity—Sample fractions were incubated in 85 mM potassium phosphate, pH 7.0 containing 2 mM EDTA and 2 mM DTT for 15 min at 37° C. in the presence of a suspension of 100 microM [9,10-^3H(N)]-triolein (100 microCi/micromol) in 25 microM egg yolk lecithin, and 100 microM sodium taurocholate. In some reactions, BEL was added at the indicated concentrations and incubated with enzyme at room temperature for 3 min prior to the addition of radiolabeled substrate. After extraction of radiolabeled reaction products and remaining substrate into butanol, samples were spotted on TLC plates, overlaid with oleic acid standard, dried, and developed in chloroformlmethanol/NH4OH (65:25:5). The region of the plate corresponding to the oleic acid standard (visualized by iodine staining) was scraped into scintillation vials and quantified by liquid scintillation spectrometry.

iPLA2epsilon = biological target: T2, iPLA2epsilon (Homo sapiens, UniProt Q9NST1, K434E); assay: Triolein lipase activity inhibition by BEL; assay type: biochemical; conditions: pre-incubated with 0.1-2 microM BEL prior to substrate
T2 construct: used as a template for PCR to obtain full-length CDNA for iPLA2epsilon; made in house; host or cells: Sf9 insect cells (baculovirus)
T2 sequence (Q9NST1 with tags, fused parts or gaps K434E): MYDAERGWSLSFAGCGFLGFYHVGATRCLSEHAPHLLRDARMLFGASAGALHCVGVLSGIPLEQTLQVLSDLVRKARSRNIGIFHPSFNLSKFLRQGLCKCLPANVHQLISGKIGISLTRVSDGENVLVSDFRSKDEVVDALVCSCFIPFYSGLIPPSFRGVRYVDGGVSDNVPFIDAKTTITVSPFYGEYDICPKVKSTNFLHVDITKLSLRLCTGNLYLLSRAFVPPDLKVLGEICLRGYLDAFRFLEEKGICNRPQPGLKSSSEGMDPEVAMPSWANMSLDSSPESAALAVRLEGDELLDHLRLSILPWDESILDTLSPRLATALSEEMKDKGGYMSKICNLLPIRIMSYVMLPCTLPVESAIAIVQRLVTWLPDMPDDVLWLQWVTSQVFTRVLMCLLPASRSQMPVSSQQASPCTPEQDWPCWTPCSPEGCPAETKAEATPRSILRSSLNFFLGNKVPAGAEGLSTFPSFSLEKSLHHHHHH
Procedure: as §1
(§2) To determine whether the three new iPLA2 family members were inhibitable by BEL, each enzyme was pre-incubated with 0.1-2 microM BEL or ethanol vehicle alone prior to measuring triolein lipase activity (FIG. 5). […] Considering the hydrophobic nature of the acyl-glycerol substrates of iPLA2epsilon, iPLA2zeta, and iPLA2eta identified herein, it is not surprising that BEL would have access to the active sites of these enzymes.

iPLA2eta = biological target: T3, iPLA2eta (Homo sapiens, UniProt P41247); assay: Triolein lipase activity inhibition by BEL; assay type: biochemical; conditions: pre-incubated with 0.1-2 microM BEL prior to substrate
T3 construct: Full-length human iPLA2zeta (TTS-2.2) and iPLA2eta (GS2) were amplified by PCR; made in house; host or cells: Sf9 insect cells (baculovirus)
T3 sequence (P41247 1-253): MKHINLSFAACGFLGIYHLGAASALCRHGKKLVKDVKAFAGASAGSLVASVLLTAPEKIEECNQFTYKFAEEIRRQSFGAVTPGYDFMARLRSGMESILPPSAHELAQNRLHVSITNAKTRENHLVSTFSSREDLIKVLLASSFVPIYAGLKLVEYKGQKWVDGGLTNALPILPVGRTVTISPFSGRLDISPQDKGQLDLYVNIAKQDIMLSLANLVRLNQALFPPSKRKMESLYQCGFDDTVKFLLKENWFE
Procedure: as §1, §2

iPLA2zeta = biological target: T4, iPLA2zeta (Homo sapiens, UniProt Q96AD5, L481P); assay: Triolein lipase activity inhibition by BEL; assay type: biochemical; conditions: pre-incubated with 0.1-2 microM BEL prior to substrate
T4 construct: Full-length human iPLA2zeta (TTS-2.2) and iPLA2eta (GS2) were amplified by PCR; made in house; host or cells: Sf9 insect cells (baculovirus)
T4 sequence (Q96AD5 with tags, fused parts or gaps L481P): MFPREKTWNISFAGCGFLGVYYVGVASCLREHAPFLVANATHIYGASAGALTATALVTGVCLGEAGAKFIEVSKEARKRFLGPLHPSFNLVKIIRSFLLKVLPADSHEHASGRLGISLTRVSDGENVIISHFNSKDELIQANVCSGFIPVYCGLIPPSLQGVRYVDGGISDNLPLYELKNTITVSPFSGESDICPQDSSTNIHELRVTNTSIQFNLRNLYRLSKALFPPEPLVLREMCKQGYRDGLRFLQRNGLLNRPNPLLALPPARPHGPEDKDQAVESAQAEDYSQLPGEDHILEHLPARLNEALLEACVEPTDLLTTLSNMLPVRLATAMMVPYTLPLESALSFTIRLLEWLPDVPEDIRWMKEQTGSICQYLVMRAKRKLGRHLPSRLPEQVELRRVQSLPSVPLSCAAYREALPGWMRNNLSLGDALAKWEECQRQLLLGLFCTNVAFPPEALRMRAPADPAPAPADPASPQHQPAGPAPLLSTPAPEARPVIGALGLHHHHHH
Procedure: as §1, §2

iPLA2beta = biological target: T5, iPLA2beta (Homo sapiens, UniProt O60733); conditions: previously demonstrated (refs 37-39); cited from earlier work
T5 sequence (O60733 1-806): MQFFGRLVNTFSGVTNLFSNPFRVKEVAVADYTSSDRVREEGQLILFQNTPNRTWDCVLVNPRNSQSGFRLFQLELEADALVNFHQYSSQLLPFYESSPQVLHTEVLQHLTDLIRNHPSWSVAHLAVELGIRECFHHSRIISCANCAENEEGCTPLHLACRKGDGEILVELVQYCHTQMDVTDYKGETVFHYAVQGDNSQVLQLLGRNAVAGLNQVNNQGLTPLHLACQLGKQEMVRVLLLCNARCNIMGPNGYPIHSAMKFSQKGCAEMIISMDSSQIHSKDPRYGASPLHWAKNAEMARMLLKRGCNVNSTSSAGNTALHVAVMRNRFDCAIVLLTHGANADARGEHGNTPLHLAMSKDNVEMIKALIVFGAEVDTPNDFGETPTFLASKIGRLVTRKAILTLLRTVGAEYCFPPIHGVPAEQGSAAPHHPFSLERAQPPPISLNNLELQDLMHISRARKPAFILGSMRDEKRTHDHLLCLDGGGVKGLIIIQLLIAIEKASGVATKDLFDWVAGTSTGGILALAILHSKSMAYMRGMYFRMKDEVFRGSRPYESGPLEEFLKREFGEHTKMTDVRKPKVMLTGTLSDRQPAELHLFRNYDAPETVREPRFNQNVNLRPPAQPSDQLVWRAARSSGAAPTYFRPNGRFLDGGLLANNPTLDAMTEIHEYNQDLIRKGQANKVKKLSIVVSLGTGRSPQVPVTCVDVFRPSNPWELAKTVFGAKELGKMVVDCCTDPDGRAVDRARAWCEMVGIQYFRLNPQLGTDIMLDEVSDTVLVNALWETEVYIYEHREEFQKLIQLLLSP

IC50 [1]: 0.1 to 0.5 µM | IC50 (iPLA2epsilon): ~0.1 µM | IC50 (iPLA2eta): ~0.1 µM | IC50 (iPLA2zeta): ~0.5 µM
Compound: O=C1O/C(=C/Br)CCC1c1cccc2ccccc12 (stereo not drawn) [BEL, (E)-6-(bromomethylene)-3-(1-naphthalenyl)-2H-tetrahydropyran-2-one]
inhibition of iPLA2gamma activity (iPLA2gamma): sub to low micromolar concentrations | inhibition of iPLA2beta activity (iPLA2beta): sub to low micromolar concentrations
